The record followed here is PMC9377236, “Cytotoxic effects of extracts obtained from plants of the Oleaceae family: bio-guided isolation and molecular docking of new secoiridoids from Jasminum humile” (Pharmaceutical Biology, 2022).

In brackets after ≈: the same amount, converted by molar mass.

For one data set, the system named is HepG-2 cell line. The experiment in a line: MTT cytotoxicity assay, HepG-2. In kind it is cell-based, human. To be noted: for IC50: Homo sapiens, HepG2, HepG-2 liver cancer cell line, MTT assay, mean ± SD; for SI, HepG-2: selectivity index = CC50 (Vero) / IC50 (HepG-2). How it is done:
(§1) The cytotoxic potential was measured against Vero cells as well as MCF-7, HepG-2, and THP-1 cell lines provided from VACSERA, Agouza, Cairo, Egypt using a microplate 3-(4,5-dimethythiazole-2yl)-2,5-diphenyl-tetrazolium bromide (MTT) method (Ashour et al. [2006]; Njeru and Muema [2007]). All experiments were repeated three times with doxorubicin (Sigma, USA) as a positive control and 0.1% DMSO media as the negative control, respectively.
(§2) The selectivity index (SI) was obtained after dividing the IC50 value of Vero cells (which can be expressed as CC50) by the specific IC50 of cancer cell lines. High (SI) indicates high anticancer activity and low cellular toxicity. Selectivity was considered to be valuable for those with (SI) greater than three (Oliveira et al. [2015]; Tsemeugne et al. [2021]; Yousefbeyk et al. [2022]).
(§3) All statistical analyses were performed using GraphPad Prism version 9.2.0 to calculate the half-maximal inhibitory concentration (IC50) and the half-maximal cytotoxic concentration (CC50) where the level of significance was set at ([…]). Quantitative data were expressed as mean ± standard deviation (SD). GraphPad Prism version 9.2.0 was also used to create multiple bar charts of the cytotoxic activity and cell viability.

Another data set deals with THP-1 cell line. The experiment in a line: MTT cytotoxicity assay, THP-1. In kind it is cell-based, human. To be noted: for IC50: Homo sapiens, THP-1 leukaemia cell line, MTT assay, mean ± SD; for SI, THP-1: selectivity index = CC50 (Vero) / IC50 (THP-1). The protocol: as §1, §2, §3
In a further data set the test system is MCF-7 cell line. Description: MTT cytotoxicity assay, MCF-7. In kind it is cell-based, human. Conditions: for IC50: Homo sapiens, MCF7, MCF-7 breast cancer cell line, MTT assay, mean ± SD; for SI, MCF-7: selectivity index = CC50 (Vero) / IC50 (MCF-7). How it is done: as §1, §2, §3
In general terms: Formazan colour is commonly taken as a measure of viable cells.

Data set [1] can be described thus: MTT assay, cytotoxic concentration (CC50) on Vero cells. The data set is classed as cell-based. To be noted: African green monkey, mean ± SD, three repeats. The protocol: as §1, §3

As to `CC=C1C(OC)OC=C2C(=O)OC3CC(C(C)CO)C(COC(=O)CC21)C3C` (single isomer, unassigned; (-)) [Compound 1, (-)-1-Methoxyjasmigenin], in the data set with HepG-2 cell line, the IC50 (commonly the concentration needed to halve the response being measured) amounted to 59.8 ± 1.45 µg/mL (≈ 152 µM) and the “SI, HepG-2” value came out at 1.03. Further, in the data set with THP-1 cell line, half-maximal inhibition (IC50) required 91.5 ± 14.9 µg/mL (≈ 232 µM) and the “SI, THP-1” value came out at 0.67. In the data set on MCF-7 cell line, inhibition was half-maximal at 78.9 ± 1.79 µg/mL (≈ 200 µM) (IC50) and the “SI, MCF-7” value was 0.78. In addition, in data set [1], the midpoint of cytotoxicity, the CC50, lay at 61.7 ± 1.26 µg/mL (≈ 156 µM).
`CC(CO)C1CC2OC(=O)C3=COC(C)C(C=O)C3CC(=O)OCC1C2C` (single isomer, unassigned; (-)) [Compound 2, (-)-1-Methyl-9-aldojasmigenin]: in the data set on HepG-2 cell line, it took 43.3 ± 4.78 µg/mL (≈ 114 µM) to reach half-maximal inhibition (IC50) and the “SI, HepG-2” value was determined as 1.40. In addition, in the data set with THP-1 cell line, 68.9 ± 9.71 µg/mL (≈ 181 µM) corresponded to half-maximal inhibition (IC50) and the “SI, THP-1” value came out at 0.88. In the data set with MCF-7 cell line, 60.6 ± 2.3 µg/mL (≈ 159 µM) corresponded to half-maximal inhibition (IC50) and the “SI, MCF-7” value is given as 1.00. It took 60.5 ± 2.72 µg/mL (≈ 159 µM) to reach half-maximal cytotoxicity in data set [1] (CC50).
Turning to `CC=C1C(OC2OC(CO)C(O)C(O)C2O)OC=C2C(=O)OC3CC(C(C)CO)C(COC(=O)CC21)C3C` (centres unmarked) [Compound 3, jasminin], in the data set with HepG-2 cell line, the IC50 amounted to 44.2 ± 4.32 µg/mL (≈ 81.5 µM) and the “SI, HepG-2” value worked out at 1.01. In the data set on THP-1 cell line, half-maximal inhibition (IC50) was put at 82.7 ± 15.7 µg/mL (≈ 152 µM) and the “SI, THP-1” value is recorded as 0.54. In the data set on MCF-7 cell line, inhibition was half-maximal at 28.6 ± 1.18 µg/mL (≈ 52.7 µM) (IC50) and the “SI, MCF-7” value stood at 1.57. Also, the CC50 (commonly the concentration that lowers cell viability or growth by half) in data set [1] was 44.7 ± 1.84 µg/mL (≈ 82.4 µM).
`CC=C1C(OC2OC(CO)C(O)C(O)C2O)OC=C2C(=O)OCC(C)C3(O)CCC(C)C3COC(=O)CC21` (centres unmarked) [Compound 4, isojasminin]: in the data set on HepG-2 cell line, inhibition was half-maximal at 33.5 ± 2.32 µg/mL (≈ 61.7 µM) (IC50) and the “SI, HepG-2” value is 3.03. For the same molecule, in the data set on THP-1 cell line, the midpoint of inhibition, the IC50, lay at 51.1 ± 10.3 µg/mL (≈ 94.1 µM) and the “SI, THP-1” value is reported as 1.99. Also, in the data set on MCF-7 cell line, the midpoint of inhibition, the IC50, lay at 43.1 ± 3.02 µg/mL (≈ 79.5 µM) and the “SI, MCF-7” value was 2.35. In data set [1], this molecule registered a CC50 of 102 ± 3.03 µg/mL (≈ 187 µM).
On to `CC=C1C(OC2OC(CO)C(O)C(O)C2O)OC=C(C(=O)OC)C1CC(=O)OCC(C)C1CC2OC(=O)C3=COC(OC4OC(CO)C(O)C(O)C4O)C(=CC)C3CC(=O)OCC1C2C` (centres unmarked) [Compound 5, jasmoside], for which, in the data set with HepG-2 cell line, half-maximal inhibition (IC50) required 66.5 ± 8.15 µg/mL (≈ 71.6 µM) and the “SI, HepG-2” value came out at 3.16. For the same molecule, in the data set with THP-1 cell line, inhibition was half-maximal at 27.6 ± 4.63 µg/mL (≈ 29.7 µM) (IC50) and the “SI, THP-1” value came out at 7.62. Moreover, in the data set on MCF-7 cell line, the IC50 turned out to be 41.3 ± 1.77 µg/mL (≈ 44.5 µM) and the “SI, MCF-7” value was determined as 5.09. In data set [1], this molecule showed a CC50 of 210 ± 5.05 µg/mL (≈ 226 µM).
Turning to `O=c1ccc2ccccc2o1` [Compound 6, coumarin], in the data set with HepG-2 cell line, 165 ± 7.08 µg/mL (≈ 1130 µM) corresponded to half-maximal inhibition (IC50) and the “SI, HepG-2” value is 1.19. In addition, in the data set with THP-1 cell line, the IC50 was determined as 296 ± 25.7 µg/mL (≈ 2020 µM) and the “SI, THP-1” value came out at 0.66. Further, in the data set on MCF-7 cell line, 194 ± 8.8 µg/mL (≈ 1330 µM) corresponded to half-maximal inhibition (IC50) and the “SI, MCF-7” value was found to be 1.01. In data set [1], this molecule gave a CC50 of 196 ± 13.3 µg/mL (≈ 1340 µM).
For `OC[C@@H](O)[C@@H](O)[C@H](O)[C@H](O)CO` [Compound 7, D-mannitol], in the data set on HepG-2 cell line, it took 69.1 ± 12.3 µg/mL (≈ 379 µM) to reach half-maximal inhibition (IC50) and the “SI, HepG-2” value turned out to be 2.52. Besides, in the data set on THP-1 cell line, the midpoint of inhibition, the IC50, lay at 214 ± 22.1 µg/mL (≈ 1180 µM) and the “SI, THP-1” value is on record as 0.81. Further, in the data set on MCF-7 cell line, the IC50 worked out at 161 ± 11.9 µg/mL (≈ 882 µM) and the “SI, MCF-7” value is given as 1.09. Further, in data set [1], the CC50 is 173 ± 6.2 µg/mL (≈ 951 µM).
With `COc1cccc2c1C(=O)c1c(O)c3c(c(O)c1C2=O)C[C@@](O)(C(=O)CO)C[C@@H]3O[C@H]1C[C@H](N)[C@H](O)[C@H](C)O1` [Doxorubicin, doxorubicin, reference compound], in the data set with HepG-2 cell line, inhibition was half-maximal at 31.6 ± 6.58 µg/mL (≈ 58.2 µM) (IC50) and the “SI, HepG-2” value was found to be 3.65. Besides, in the data set on THP-1 cell line, half-maximal inhibition (IC50) required 47.8 ± 7.03 µg/mL (≈ 88 µM) and the “SI, THP-1” value is listed as 2.41. In addition, in the data set on MCF-7 cell line, 52.8 ± 5.36 µg/mL (≈ 97.1 µM) corresponded to half-maximal inhibition (IC50) and the “SI, MCF-7” value amounted to 2.19. For the same molecule, in data set [1], the midpoint of cytotoxicity, the CC50, lay at 116 ± 6.1 µg/mL (≈ 213 µM).
